{
  "source": "paper PMC6934184",
  "about": "“Selective DNA-PKcs inhibition extends the therapeutic index of localized radiotherapy and chemotherapy” (The Journal of Clinical Investigation, 2019)",
  "molecular_target": "T1, STK38L (NDR2) (Homo sapiens, UniProt Q9Y2H1)",
  "T1 construct": "purchased Thermo Fisher Scientific (Life Technologies) SelectScreen",
  "T1 sequence (Q9Y2H1 whole entry)": "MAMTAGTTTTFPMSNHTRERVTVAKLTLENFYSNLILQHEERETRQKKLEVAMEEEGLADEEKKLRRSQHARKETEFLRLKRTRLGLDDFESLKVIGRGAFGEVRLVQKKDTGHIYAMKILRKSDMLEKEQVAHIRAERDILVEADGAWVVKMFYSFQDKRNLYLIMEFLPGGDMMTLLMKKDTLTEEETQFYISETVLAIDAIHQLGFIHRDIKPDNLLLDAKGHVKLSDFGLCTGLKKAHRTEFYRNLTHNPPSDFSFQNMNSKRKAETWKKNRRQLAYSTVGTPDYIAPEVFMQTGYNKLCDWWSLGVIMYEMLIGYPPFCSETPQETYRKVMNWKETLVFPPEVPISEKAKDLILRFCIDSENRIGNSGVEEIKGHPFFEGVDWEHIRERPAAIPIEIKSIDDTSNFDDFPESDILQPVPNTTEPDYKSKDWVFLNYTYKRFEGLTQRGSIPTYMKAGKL",
  "assay": "SelectScreen LanthaScreen",
  "assay_type": "binding",
  "details": "read-out: % displacement",
  "method_in_brief": "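Percent values come from Thermo SelectScreen profiling of NU5455, combining activity and binding assays. CSF1R was run in Z'LYTE format at Km app ATP, and CAMK1 in Adapta format with ATP listed at 10.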",
  "data": [
    {"molecule": "CN(C(=O)CN1CCOCC1)c1ccc2sc3c(-c4cccc5c(=O)cc(N6CC7CCC(C6)O7)oc45)cccc3c2c1", "note": "[NU5455]", "values": [
      {"measurement": "inhibition at 1 µM", "value": -8.4, "unit": "%"}
    ]}
  ]
}
